Assays:
[1] = test system: MLLr leukemia cell line MV4-11; assay: Cell proliferation assay MV4;11 (CellTiter-Glo, 72 hours); assay type: cell-based; settings: Homo sapiens; MV4-11 cells, 72 hours, CellTiter-Glo; read-out: MV4; 11 IC50
Description: Compounds were evaluated for its capacity to inhibit the proliferation of the MLLr leukemia cell line MV4-11 that harbors an MLL1-AF4 fusion protein. MV4-11 cells were cultured for 72 hours with limiting dilutions of compounds and viability was measured using CellTiter-Glo.
Compounds were dissolved to obtain as 10 mM solution in DMSO. The stock was diluted 1:5 to the top concentration of 2 mM in 100% DMSO. For IC50 determination, serial 1:3.16 dilutions were prepared in 100% DMSO by diluting 20 μL into 43.5 μL of DMSO for 8 concentrations. Each prepared DMSO solution were further diluted 1:500 in the cell culture media to obtain the 2× dosing solutions. The final concentrations of tested compounds in the cell culture media ranged from 0.632 nM to 2000 nM.
MV4-11 cells were cultured in IMDM with 10% FBS and 1× Penicillin-Streptomycin at 5% CO2 and 37° C. A cell suspension was prepared containing 15,000 cells/ml in the culture medium and 100 μL of this suspension was added per well to a 96-well cell culture plate. Then, 100 μL of 2× dosing media containing test compounds were added bringing the total volume to 200 μL. These cells were cultured for 72 hours at 37° C. and 5% CO2 in a humidified incubator.
After 72 hours, the cultured cells were mixed and 100 μL was transferred to a 96-well black plate. Cell Titer Glo (100 μl) was then added to this plate. The plate was mixed with shaking for 15 mins at RT, the luminescence was then measured using Tecan Spark 20M spectrophotometer. Cell Viability (%) was determined by RLU of test/RLU average vehicle control*100 and % max inhibition was determined by 100−(% cell viability remaining at the top concentration of compound).

hERG = hERG (Homo sapiens, UniProt Q12809); assay: Patch clamp assay (hERG tail currents, whole-cell)
Chain of hERG (Q12809 whole entry): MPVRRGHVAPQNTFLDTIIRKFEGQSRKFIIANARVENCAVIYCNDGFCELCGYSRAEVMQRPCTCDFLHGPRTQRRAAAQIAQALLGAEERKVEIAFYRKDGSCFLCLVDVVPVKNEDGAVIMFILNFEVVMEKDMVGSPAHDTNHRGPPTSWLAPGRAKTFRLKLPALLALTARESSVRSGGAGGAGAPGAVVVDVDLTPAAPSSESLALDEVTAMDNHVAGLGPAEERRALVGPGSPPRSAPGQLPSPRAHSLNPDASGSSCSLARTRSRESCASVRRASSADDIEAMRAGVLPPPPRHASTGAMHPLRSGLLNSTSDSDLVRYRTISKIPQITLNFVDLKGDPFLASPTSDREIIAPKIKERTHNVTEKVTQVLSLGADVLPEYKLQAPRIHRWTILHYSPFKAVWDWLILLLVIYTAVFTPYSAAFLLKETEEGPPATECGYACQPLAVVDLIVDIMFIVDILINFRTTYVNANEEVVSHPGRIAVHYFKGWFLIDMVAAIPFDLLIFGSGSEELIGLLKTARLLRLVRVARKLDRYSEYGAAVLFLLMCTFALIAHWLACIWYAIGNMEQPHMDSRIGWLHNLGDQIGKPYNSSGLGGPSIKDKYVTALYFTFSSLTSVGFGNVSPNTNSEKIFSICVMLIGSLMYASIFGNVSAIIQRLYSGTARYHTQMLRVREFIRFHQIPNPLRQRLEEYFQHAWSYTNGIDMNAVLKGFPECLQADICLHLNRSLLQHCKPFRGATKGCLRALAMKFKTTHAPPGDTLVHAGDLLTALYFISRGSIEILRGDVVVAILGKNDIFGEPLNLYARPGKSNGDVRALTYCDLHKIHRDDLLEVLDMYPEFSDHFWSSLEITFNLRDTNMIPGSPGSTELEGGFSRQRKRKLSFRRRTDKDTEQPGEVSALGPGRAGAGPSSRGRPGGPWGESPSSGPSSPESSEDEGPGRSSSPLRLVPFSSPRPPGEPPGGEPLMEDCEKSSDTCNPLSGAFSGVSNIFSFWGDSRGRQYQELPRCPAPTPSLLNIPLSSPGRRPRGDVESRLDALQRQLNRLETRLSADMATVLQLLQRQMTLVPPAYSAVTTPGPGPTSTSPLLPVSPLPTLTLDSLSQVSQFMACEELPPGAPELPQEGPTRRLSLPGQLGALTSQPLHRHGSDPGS

| IC50 [1] [nM] | SMILES | hERG % Remaining (hERG; 10 μM compound) | hERG % Remaining (hERG; 30 μM compound) |
| --- | --- | --- | --- |
| < 100 | CCN(C(=O)c1cc(F)ccc1Oc1cncnc1N1CC2(CCN(C[C@@H]3CC[C@@H](NS(=O)(=O)c4cnn(C)c4)CO3)CC2)C1)C(C)C [Example 68, N-Ethyl-5-fluoro-N-isopropyl-2-((4-(7-(((2S,5R)-5-((1-methyl-1H-pyrazole)-4-sulfonamido)tetrahydro-2H-pyran-2-yl)methyl)-2,7-diazaspiro[3.5]nonan-2-yl)pyrimidin-5-yl)oxy)benzamide] | +++ (≥66%) | +++ (≥66%) |
| < 100 | CCN(C(=O)c1cc(F)ccc1Oc1cncnc1N1CC2(CCN(C[C@@H]3CC[C@@H](NS(=O)(=O)c4csc(C)n4)CO3)CC2)C1)C(C)C [Example 71, N-Ethyl-5-fluoro-N-isopropyl-2-((4-(7-(((2S,5R)-5-((2-methylthiazole)-4-sulfonamido)tetrahydro-2H-pyran-2-yl)methyl)-2,7-diazaspiro[3.5]nonan-2-yl)pyrimidin-5-yl)oxy)benzamide] | +++ (≥66%) | ++ (233% and ≤66%) |
| < 100 | CCN(C(=O)c1cc(F)ccc1Oc1cncnc1N1CC2(CCN(C[C@@H]3CC[C@@H](NS(=O)(=O)c4cnc(C)o4)CO3)CC2)C1)C(C)C [Example 72, N-Ethyl-5-fluoro-N-isopropyl-2-((4-(7-(((2S,5R)-5-((2-methyloxazole)-5-sulfonamido)tetrahydro-2H-pyran-2-yl)methyl)-2,7-diazaspiro[3.5]nonan-2-yl)pyrimidin-5-yl)oxy)benzamide] | ++ (233% and ≤66%) | + (<33%) |
| < 100 | CCN(C(=O)c1cc(F)ccc1Oc1cncnc1N1CC2(CCN(C[C@@H]3CC[C@@H](NS(=O)(=O)c4c[nH]c(=O)cc4C)CO3)CC2)C1)C(C)C [Example 75, N-Ethyl-5-fluoro-N-isopropyl-2-((4-(7-(((2S,5R)-5-((4-methyl-6-oxo-1,6-dihydropyridine)-3-sulfonamido)tetrahydro-2H-pyran-2-yl)methyl)-2,7-diazaspiro[3.5]nonan-2-yl)pyrimidin-5-yl)oxy)benzamide] | – | +++ (≥66%) |
| < 100 | Cc1ncc(S(=O)(=O)N[C@@H]2CC[C@@H](CN3CCC4(CC3)CN(c3ncncc3Oc3ccc(F)cc3C(=O)N(C(C)C)C(C)C)C4)OC2)o1 [Example 80, 5-Fluoro-N,N-diisopropyl-2-((4-(7-(((2S,5R)-5-((2-methyloxazole)-5-sulfonamido)tetrahydro-2H-pyran-2-yl)methyl)-2,7-diazaspiro[3.5]nonan-2-yl)pyrimidin-5-yl)oxy)benzamide] | ++ (233% and ≤66%) | + (<33%) |
| < 100 | Cc1nc(S(=O)(=O)N[C@@H]2CC[C@@H](CN3CCC4(CC3)CN(c3ncncc3Oc3ccc(F)cc3C(=O)N(C(C)C)C(C)C)C4)OC2)cs1 [Example 81, 5-Fluoro-N,N-diisopropyl-2-((4-(7-(((2S,5R)-5-((2-methylthiazole)-4-sulfonamido)tetrahydro-2H-pyran-2-yl)methyl)-2,7-diazaspiro[3.5]nonan-2-yl)pyrimidin-5-yl)oxy)benzamide] | ++ (233% and ≤66%) | ++ (233% and ≤66%) |
| < 100 | CC(C)N(C(=O)c1cc(F)ccc1Oc1cncnc1N1CC2(CCN(C[C@@H]3CC[C@@H](NS(=O)(=O)c4cnn(C)c4Cl)CO3)CC2)C1)C(C)C [Example 82, 2-((4-(7-(((2S,5R)-5-((5-Chloro-1-methyl-1H-pyrazole)-4-sulfonamido)tetrahydro-2H-pyran-2-yl)methyl)-2,7-diazaspiro[3.5]nonan-2-yl)pyrimidin-5-yl)oxy)-5-fluoro-N,N-diisopropylbenzamide] | ++ (233% and ≤66%) | + (<33%) |
| < 100 | CC(C)N(C(=O)c1cc(F)ccc1Oc1cncnc1N1CC2(CCN(C[C@@H]3CC[C@@H](NS(=O)(=O)N4CCC[C@H]4C)CO3)CC2)C1)C1CCOC1 (stereo partly drawn) [Example 207, 5-Fluoro-N-isopropyl-2-((4-(7-(((2S,5R)-5-(((R)-2-methylpyrrolidine)-1-sulfonamido)tetrahydro-2H-pyran-2-yl)methyl)-2,7-diazaspiro[3.5]nonan-2-yl)pyrimidin-5-yl)oxy)-N-((S)-tetrahydrofuran-3-yl)benzamide] | – | – |
| < 100 | COC[C@H]1CCCN1S(=O)(=O)N[C@@H]1CC[C@@H](CN2CCC3(CC2)CN(c2ncncc2Oc2ccc(F)cc2C(=O)N(C(C)C)C(C)C)C3)OC1 [Example 212, 5-Fluoro-N,N-diisopropyl-2-((4-(7-(((2S,5R)-5-(((R)-2-(methoxymethyl)pyrrolidine)-1-sulfonamido)tetrahydro-2H-pyran-2-yl)methyl)-2,7-diazaspiro[3.5]nonan-2-yl)pyrimidin-5-yl)oxy)benzamide] | – | – |
| < 100 | COC[C@@H]1CCCN1S(=O)(=O)N[C@@H]1CC[C@@H](CN2CCC3(CC2)CN(c2ncncc2Oc2ccc(F)cc2C(=O)N(C(C)C)C(C)C)C3)OC1 [Example 213, 5-Fluoro-N,N-diisopropyl-2-((4-(7-(((2S,5R)-5-(((S)-2-(methoxymethyl)pyrrolidine)-1-sulfonamido)tetrahydro-2H-pyran-2-yl)methyl)-2,7-diazaspiro[3.5]nonan-2-yl)pyrimidin-5-yl)oxy)benzamide] | – | – |
| 100 to 1000 | CN=S(=O)(N[C@@H]1CC[C@@H](CN2CCC3(CC2)CN(c2ncncc2Oc2ccc(F)cc2C(=O)N(C(C)C)C(C)C)C3)OC1)c1ccccc1 (stereo partly drawn) [Example 232, 5-Fluoro-N,N-diisopropyl-2-((4-(7-(((2S,5R)-5-(N′-methylphenylsulfonoamidimidamido)tetrahydro-2H-pyran-2-yl)methyl)-2,7-diazaspiro[3.5]nonan-2-yl)pyrimidin-5-yl)oxy)benzamide] | – | – |
| < 100 | CC(C)N(C(=O)c1cc(F)ccc1Oc1cncnc1N1CC2(CCN(C[C@@H]3CC[C@@H](NS(=N)(=O)C4CC4)CO3)CC2)C1)C(C)C (stereo partly drawn) [Example 233, 2-((4-(7-(((2S,5R)-5-(Cyclopropanesulfonoamidimidamido)tetrahydro-2H-pyran-2-yl)methyl)-2,7-diazaspiro[3.5]nonan-2-yl)pyrimidin-5-yl)oxy)-5-fluoro-N,N-diisopropylbenzamide] | – | – |
| < 100 | Cc1ncc(S(=O)(=O)N[C@@H]2CC[C@@H](CN3CCC4(CC3)CN(c3ncncc3Oc3ccc(F)cc3C(=O)N(C(C)C)C(C)C)C4)OC2)[nH]1 [Example 234, 5-Fluoro-N,N-diisopropyl-2-((4-(7-(((2S,5R)-5-((2-methyl-1H-imidazole)-5-sulfonamido)tetrahydro-2H-pyran-2-yl)methyl)-2,7-diazaspiro[3.5]nonan-2-yl)pyrimidin-5-yl)oxy)benzamide] | – | – |
| < 100 | CC(C)N(CC(F)F)C(=O)c1cc(F)ccc1Oc1cncnc1N1CC2(CCN(C[C@@H]3CC[C@@H](NS(=O)(=O)N4CC(OCc5ccccc5)C4)CO3)CC2)C1 [Example 236, 2-((4-(7-(((2S,5R)-5-((3-(Benzyloxy)azetidine)-1-sulfonamido)tetrahydro-2H-pyran-2-yl)methyl)-2,7-diazaspiro[3.5]nonan-2-yl)pyrimidin-5-yl)oxy)-N-(2,2-difluoroethyl)-5-fluoro-N-isopropylbenzamide] | – | – |
| < 100 | CC(C)N(CC(F)F)C(=O)c1cc(F)ccc1Oc1cncnc1N1CC2(CCN(C[C@@H]3CC[C@@H](NS(=O)(=O)N4CC(O)C4)CO3)CC2)C1 [Example 237, N-(2,2-Difluoroethyl)-5-fluoro-2-((4-(7-(((2S,5R)-5-((3-hydroxyazetidine)-1-sulfonamido)tetrahydro-2H-pyran-2-yl)methyl)-2,7-diazaspiro[3.5]nonan-2-yl)pyrimidin-5-yl)oxy)-N-isopropylbenzamide] | – | – |
| < 100 | CC(C)N(CC(F)F)C(=O)c1cc(F)ccc1Oc1cncnc1N1CC2(CCN(C[C@@H]3CC[C@@H](NS(=O)(=O)N(C)CCOCc4ccccc4)CO3)CC2)C1 [Example 238] | – | – |
| 100 to 1000 | CCS(=O)(=O)N[C@@H]1CC[C@@H](CN2CCC3(CC2)CN(c2ncncc2Oc2ccc(F)cc2C(=O)N(C(C)C)[C@H]2[C@@H]4COC[C@@H]42)C3)OC1 [Example 253, N-((1R,5S,6r)-3-Oxabicyclo[3.1.0]hexan-6-yl)-2-((4-(7-(((2S,5R)-5-(ethylsulfonamido)tetrahydro-2H-pyran-2-yl)methyl)-2,7-diazaspiro[3.5]nonan-2-yl)pyrimidin-5-yl)oxy)-5-fluoro-N-isopropylbenzamide] | – | – |
| < 100 | CCS(=O)(=O)N[C@@H]1CC[C@@H](CN2CCC3(CC2)CN(c2ncncc2Oc2ccc(F)cc2C(=O)N(C(C)C)[C@H]2C[C@H](O)C2)C3)OC1 [Example 259, 2-((4-(7-(((2S,5R)-5-(Ethylsulfonamido)tetrahydro-2H-pyran-2-yl)methyl)-2,7-diazaspiro[3.5]nonan-2-yl)pyrimidin-5-yl)oxy)-5-fluoro-N-((1r,3r)-3-hydroxycyclobutyl)-N-isopropylbenzamide] | – | – |

— patent publication US20240400564A1 (Syndax Pharmaceuticals, Inc, priority 2021, published 2024)
